Measured values as given in patent EP4755878A1, “PHOTOCHROMIC COMPOUND, PHENOL DERIVATIVE, CURABLE COMPOSITION, OPTICAL ARTICLE, LENS, AND EYEGLASS” (TOKUYAMA CORPORATION, priority 2023, dated 2025).

Key:
[1] = Photochromic properties of photochromic cured product made by kneading method; assay type: physicochemical; settings: for Maximum absorption wavelength: 1 mm, after color development, second absorption wavelength (lower line of pair); for Color developing density at 23°C: absorbance difference after 240 seconds irradiation at 23°C; for Color developing density at 35°C: absorbance difference after 240 seconds irradiation at 35°C
Excerpt: First, the photochromic compound obtained in Example 1, additives, and polymerizable compounds were mixed to obtain a curable composition. As the polymerizable compounds, a blend of the following polymerizable monomers in combination was used. • 1,3-Bis(isocyanatomethyl)cyclohexane: 36.7 parts by mass Pentaerythritol tetrakis(3-mercaptopropionate): 39.4 parts by mass • Polyoxyethylene polyoxypropylene lauryl ether (WONDERSURF 140 from Aoki Oil Industrial Co., Ltd.): 17.4 parts by mass 1-Decanethiol: 2.8 parts by mass • RX-1 prepared according to the method described in Patent Document 12: 3.8 parts by mass Note that in the curable composition, the photochromic compound was added to be 0.106 mmol taking the total amount of the polymerizable monomers as 100 g.
The following additives were used. Dimethyltin dichloride: 0.05 parts by mass • Irganox 245 from BASF Japan Ltd.: 0.1 parts by mass • 2-Ethylhexyl 4-methoxycinnamate: 0.6 parts by mass
The prepared curable composition was sufficiently degassed, and then injected into a glass mold provided with a gap of 1 mm, and the curable composition was polymerized via casting polymerization. […] After the polymerization, the cured product was removed from the glass mold, to obtain photochromic cured product having a thickness of 1 mm. The resulting photochromic cured product was evaluated in the same manner as in Example 23.
(Examples 51 to 60, and Comparative Examples 11 to 14) Photochromic cured products were formed using the photochromic compound shown in Table 6 in the same manner as in Example 50.

[2] = Photochromic properties of photochromic laminate (plastic lens) made by coating method; assay type: physicochemical; settings: for Color developing density at 23°C: absorbance difference after 240 seconds irradiation at 23°C; for Color developing density at 35°C: absorbance difference after 240 seconds irradiation at 35°C; for Maximum absorption wavelength: after color development, second absorption wavelength (lower line of pair)
Excerpt: First, the photochromic compound obtained in Example 1 above, a photoinitiator, and polymerizable compounds were mixed to obtain a curable composition.
As the polymerizable compounds, a blend of the following radically-polymerizable monomers in combination was used.
• Polyethylene glycol dimethacrylate (average molecular weight: 736): 42 parts by mass • Polyethylene glycol dimethacrylate (average molecular weight: 536): 12 parts by mass • Trimethylolpropane trimethacrylate: 38 parts by mass • γ-Methacryloyloxypropyltrimethoxysilane: 2 parts by mass • Glycidyl methacrylate: 1 part by mass.
Note that in the curable composition, the photochromic compound obtained in Example 1 above was added to be 0.25 mmol taking the total amount of the radically-polymerizable monomers as 100 g. The following were used as additives.
(stabilizer, Irganox 245): 1 part by mass Bis(1,2,2,6,6-pentamethyl-4-piperidyl) sebacate: 3 parts by mass Leveling agent from DuPont Toray Specialty Materials K.K. (L7001): 0.1 parts by mass.
Note that the above-mentioned additives are described with blending ratios taking a total of the radically-polymerizable monomers as 100 parts by mass.
Using this curable composition, a photochromic laminate was obtained by a lamination process described below with the polymerization described below being carried out.
First, a thiourethane plastic lens with a center thickness of 2 mm and a refractive index of 1.60 was prepared as an optical substrate. Note that the thiourethane plastic lens had been alkaline-etched beforehand in a 10% aqueous sodium hydroxide solution at 50°C for 5 minutes, and then thoroughly washed with distilled water.
A spin coater (1H-DX2, manufactured by MIKASA CO., LTD) was used to coat a surface of the above-mentioned plastic lens with a moisture-curable primer (product name: TR-SC-P, manufactured by Tokuyama Corporation) at a rotation speed of 70 rpm for 15 seconds, followed by at 1000 rpm for 10 seconds. Then, about 2 g of the photochromic curable composition obtained as above was spin-coated at a rotation speed of 60 rpm for 40 seconds, followed by at 600 rpm for 10 to 20 seconds so as to achieve a photochromic coating layer with a film thickness of 40 µm.
The lens having the surface coated with the photochromic curable composition (photochromic coating layer) was irradiated with light for 90 seconds in a nitrogen gas atmosphere using a metal halide lamp with an output of 200 mW/cm^2 to cure the coating film. The coating was then further heated at 110°C for 1 hour to produce a photochromic laminate with a photochromic layer.
Photochromic laminates were produced using the photochromic compounds obtained in Examples 2 to 19 in the same manner as in Example 20.
Photochromic laminates were obtained in the same manner as in Example 20 using photochromic compounds represented by the following formulas (A) to (F). [drawing 143] [drawing 144] [drawing 145] [drawing 146] [drawing 147] [drawing 148] [drawing 149] [drawing 150]
The resulting photochromic laminates were evaluated by the methods described below.
Table 3 summarizes the results of Examples 20, 32, and 34, and Comparative Examples 1 to 6, and Table 4 summarizes the results of Examples 21 to 31, 33, and 35 to 38. The relationship between the fading half-life at 23°C and the color development ratio at the higher temperature of the photochromic laminates according to Examples and Comparative Examples are shown in a graph in FIG. 1.
Photochromic laminates were formed using the photochromic compound obtained in Examples 61 to 71 in the same manner as in Example 20.

[3] = Photochromic properties of photochromic layer (binder sheet) made by binder method; settings: for Color developing density at 23°C: absorbance difference after 240 seconds irradiation at 23°C; for Color developing density at 35°C: absorbance difference after 240 seconds irradiation at 35°C; for Maximum absorption wavelength: after color development, second absorption wavelength (lower line of pair)
Method: This is the maximum absorption wavelength after color development determined by a spectrophotometer manufactured by Otsuka Electronics Co., Ltd. (instantaneous multichannel photo detector MCPD3000) and was used as an index of a color tone upon color development.
This is a difference between an absorbance {ε(240)} after irradiation with light at the above-mentioned maximum absorption wavelength at 23°C for 240 seconds and an absorbance ε(0) when not irradiated with light, and was used as an index of a color developing density. The higher this value is, the better photochromic property is.
This is a difference between an absorbance {ε(240)} after irradiation with light at first and second absorption wavelengths at 35°C for 240 seconds and an absorbance ε(0) when not irradiated with light, and was used as an index of a color developing density. The higher this value is, the better photochromic property is.
Color developing density at 35°C (A35) /color developing density at 23°C (A23) × 100(%). The higher this value is, the smaller the difference in color developing density between the higher temperature and the lower temperature is, and the smaller the temperature dependence is.
This is the period of time required for the absorbance at a maximum absorption wavelength of a sample to decrease to 1/2 of {ε(240)-ε(0)}, when light irradiation is stopped after the sample had been irradiated with light at 23°C for 240 seconds, and was used as an index of a color fading rate. The shorter this period of time is, the higher the color fading rate is.
A binder sheet was made according to the following method. […] As the first and second optical sheets, polycarbonate sheets with a thickness of 400 µm were used.
Note that the photochromic compound was added to be 0.25 mmol relative to 100 parts by mass of the terminally non-reactive urethaneurea resin.

Structure (SMILES)	Maximum absorption wavelength [1] [nm]	Color developing density at 23°C ([1]; first absorption wavelength)	Color developing density at 23°C ([1]; second absorption wavelength)	Color developing density at 35°C ([1]; first absorption wavelength)	Color developing density at 35°C ([1]; second absorption wavelength)	Color developing density at 23°C ([2]; first absorption wavelength)	Color developing density at 23°C ([2]; second absorption wavelength)	Color developing density at 35°C ([2]; first absorption wavelength)	Color developing density at 35°C ([2]; second absorption wavelength)	Maximum absorption wavelength [2] [nm]	Color developing density at 23°C ([3]; first absorption wavelength)	Color developing density at 23°C ([3]; second absorption wavelength)	Color developing density at 35°C ([3]; first absorption wavelength)	Color developing density at 35°C ([3]; second absorption wavelength)	Maximum absorption wavelength [3] [nm]
CCCCOc1ccc(C2(c3ccc(OCCCC)cc3)C=Cc3c4c(c5ccc(OC)cc5c3O2)-c2ccc(C)cc2C4(C)C)cc1 [Formula (B), reference compound]	586	0.76 -	0.98 -	0.53 -	0.69 -	0.69 -	0.96 -	0.48 -	0.65 -	579	0.75 -	0.98 -	0.50 -	0.67 -	580
COc1ccc(C2(c3ccc(OC)cc3)C=Cc3c4c(c5ccc(Oc6ccccc6)cc5c3O2)-c2ccc(N(c3ccccc3)c3ccccc3)cc2C4(CCCCF)CCCCF)cc1 [Formula (8-2)]	618	0.78 -	1.02 -	0.55 -	0.70 -	0.75 -	0.99 -	0.52 -	0.69 -	610	0.77 -	1.01 -	0.51 -	0.69 -	609
COc1ccc(C2(c3ccc(OC)cc3)C=Cc3c4c(c5ccc(OC)cc5c3O2)-c2ccc(N(C)c3ccccc3)cc2C4(C)C)cc1 [Formula (1-7)]	621	0.89 -	1.09 -	0.67 -	0.84 -	0.86 -	1.06 -	0.64 -	0.81 -	616	0.88 -	1.08 -	0.63 -	0.80 -	613
COCC1(COC)c2cc(N(C)c3ccccc3)ccc2-c2c1c1c(c3ccccc23)OC(c2ccc(OC)cc2)(c2ccc(OC)c(F)c2)C=C1 (stereo not drawn) [Formula (16-3)]	599	0.56 -	0.92 -	0.38 -	0.65 -	0.53 -	0.89 -	0.36 -	0.61 -	593	0.55 -	0.90 -	0.37 -	0.61 -	595
